Assay results published in PubChem BioAssay (NCI).
Several values for one entry are separate records, joined by “and”; a condition that tells them apart may be missing. Equal entries are not always repeated.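 Protocol summary: plate cells (96-well), add compound at 5 concentrations, incubate 48 h, interpolate endpoints linearly. Here, GI50 denotes the concentration required for 50% inhibition of growth. TGI: concentration producing complete growth inhibition.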

Experiments:
Assay in all cases: NCI anticancer screen, dose series, 48 h
NCI-H226 lung = system: NCI-H226 lung
NCI-H522 lung = system: NCI-H522 lung
M14 melanoma = system: M14 melanoma
OVCAR-4 ovarian = system: OVCAR-4 ovarian
TK-10 renal = system: TK-10 renal
SK-OV-3 ovarian = system: SK-OV-3 ovarian
U251 CNS = system: U251 CNS
CCRF-CEM leukemia = system: CCRF-CEM leukemia
HCC-2998 colon = system: HCC-2998 colon
K-562 leukemia = system: K-562 leukemia

CC[C@H](C)n1cc(C)c2c(C(=O)NCc3c(C)cc(C)[nH]c3=O)cc(-c3ccc(N4CCNCC4)nc3)cc21
GI50 (NCI-H226 lung): 16.3 µM and 17.3 µM | TGI (NCI-H226 lung): 36.5 µM and 36.9 µM | GI50 (NCI-H522 lung): 17.6 µM and 14 µM | TGI (NCI-H522 lung): 34.2 µM and 29.5 µM | GI50 (M14 melanoma): 9.56 µM and 4.52 µM | TGI (M14 melanoma): 22.5 µM and 14.3 µM | GI50 (OVCAR-4 ovarian): 13.4 µM and 12.5 µM | TGI (OVCAR-4 ovarian): 28.9 µM and 26.4 µM | GI50 (TK-10 renal): 15.4 µM | TGI (TK-10 renal): 29.7 µM | GI50 (SK-OV-3 ovarian): 19.1 µM and 14.6 µM | TGI (SK-OV-3 ovarian): 33.5 µM and 28 µM | GI50 (U251 CNS): 10.9 µM and 10.2 µM | TGI (U251 CNS): 23.1 µM and 22.7 µM | GI50 (CCRF-CEM leukemia): 18 µM and 11.1 µM | TGI (CCRF-CEM leukemia): 35.9 µM and 26.3 µM | GI50 (HCC-2998 colon): 14.7 µM and 9.46 µM | TGI (HCC-2998 colon): 30.2 µM and 23.4 µM | GI50 (K-562 leukemia): 2.87 µM and 3.2 µM | TGI (K-562 leukemia): 8.09 µM and 10.9 µM

Cc1cc(-c2nc(-c3ccc(OC(F)(F)F)cc3)no2)nn1Cc1ccnc(N2CCN(C3CC3)CC2)c1
GI50 (NCI-H226 lung): 12.2 µM | TGI (NCI-H226 lung): > 100 µM | GI50 (NCI-H522 lung): 2.68 µM | TGI (NCI-H522 lung): 58.1 µM | GI50 (M14 melanoma): 2.69 µM | TGI (M14 melanoma): 20.4 µM | GI50 (OVCAR-4 ovarian): < 0.01 µM | TGI (OVCAR-4 ovarian): > 100 µM | GI50 (TK-10 renal): 11.2 µM | TGI (TK-10 renal): > 100 µM | GI50 (SK-OV-3 ovarian): > 49.6 µM | TGI (SK-OV-3 ovarian): > 100 µM | GI50 (U251 CNS): 5.52 µM | TGI (U251 CNS): > 100 µM | GI50 (CCRF-CEM leukemia): 7.09 µM | TGI (CCRF-CEM leukemia): > 100 µM | GI50 (HCC-2998 colon): 7.05 µM | TGI (HCC-2998 colon): 24.5 µM | GI50 (K-562 leukemia): < 0.01 µM | TGI (K-562 leukemia): > 100 µM

COc1cc2cc[n+]3c4cc(OC)c(OC)cc4c(C)cc3c2cc1OC
TGI (NCI-H226 lung): > 100 µM | TGI (NCI-H522 lung): > 100 µM | TGI (M14 melanoma): > 100 µM | TGI (OVCAR-4 ovarian): > 100 µM | TGI (TK-10 renal): > 100 µM | TGI (SK-OV-3 ovarian): > 100 µM | TGI (U251 CNS): > 100 µM | TGI (CCRF-CEM leukemia): > 100 µM | TGI (HCC-2998 colon): > 100 µM | TGI (K-562 leukemia): > 100 µM

CCOC(=O)C1=C(C)NC2SC(=O)/C(=C\c3ccccc3)N2C1c1ccccc1 (configuration not stated)
GI50 (NCI-H226 lung): > 100 µM | TGI (NCI-H226 lung): > 100 µM | GI50 (NCI-H522 lung): > 100 µM | TGI (NCI-H522 lung): > 100 µM | GI50 (M14 melanoma): > 100 µM | TGI (M14 melanoma): > 100 µM | GI50 (OVCAR-4 ovarian): 78.1 µM | TGI (OVCAR-4 ovarian): > 100 µM | GI50 (TK-10 renal): 56.2 µM | TGI (TK-10 renal): > 100 µM | GI50 (SK-OV-3 ovarian): > 100 µM | TGI (SK-OV-3 ovarian): > 100 µM | GI50 (U251 CNS): > 100 µM | TGI (U251 CNS): > 100 µM | GI50 (CCRF-CEM leukemia): 14.8 µM | TGI (CCRF-CEM leukemia): > 100 µM | GI50 (HCC-2998 colon): > 100 µM | TGI (HCC-2998 colon): > 100 µM | GI50 (K-562 leukemia): 51.8 µM | TGI (K-562 leukemia): > 100 µM

Oc1cc(O)c2c(=S)cc(-c3ccc(Cl)cc3)oc2c1
GI50 (NCI-H226 lung): 4.97 µM | TGI (NCI-H226 lung): 32.5 µM | GI50 (NCI-H522 lung): 2.29 µM | TGI (NCI-H522 lung): 7.25 µM | GI50 (M14 melanoma): 3.22 µM | TGI (M14 melanoma): 14.8 µM | GI50 (OVCAR-4 ovarian): 0.379 µM | TGI (OVCAR-4 ovarian): > 31.8 µM | GI50 (TK-10 renal): 4.08 µM | TGI (TK-10 renal): 19.1 µM | GI50 (SK-OV-3 ovarian): 2.77 µM | TGI (SK-OV-3 ovarian): 18.2 µM | GI50 (U251 CNS): 3.24 µM | TGI (U251 CNS): 11.3 µM | GI50 (CCRF-CEM leukemia): 4.02 µM | TGI (CCRF-CEM leukemia): > 63.1 µM | GI50 (HCC-2998 colon): 1.7 µM | TGI (HCC-2998 colon): 14.5 µM | GI50 (K-562 leukemia): 3.48 µM | TGI (K-562 leukemia): 22.3 µM

C=CCN(/C=C1\C(=O)O[C@H](COC)[C@@]2(C)C1=C(O)C(=O)C1=C2[C@H](OC(C)=O)C[C@]2(C)C(=O)CC[C@@H]12)CC=C
GI50 (NCI-H226 lung): 0.364 µM and 1.16 µM | GI50 (NCI-H522 lung): 6.46 µM and 2.87 µM | TGI (NCI-H522 lung): 20 µM and 22.2 µM | GI50 (M14 melanoma): 2.98 µM | TGI (M14 melanoma): > 100 µM | GI50 (OVCAR-4 ovarian): 2.97 µM and 2.58 µM | TGI (OVCAR-4 ovarian): 20 µM and > 100 µM | GI50 (TK-10 renal): 0.128 µM and 0.437 µM | GI50 (SK-OV-3 ovarian): 3.38 µM and 0.596 µM | TGI (SK-OV-3 ovarian): 20 µM and 19.8 µM | GI50 (U251 CNS): 1.6 µM and 3.35 µM | TGI (U251 CNS): 20 µM and > 100 µM | GI50 (CCRF-CEM leukemia): 11.1 µM and 1.41 µM | TGI (CCRF-CEM leukemia): 20 µM and > 100 µM | GI50 (HCC-2998 colon): 0.487 µM and 0.207 µM | TGI (HCC-2998 colon): 8.12 µM and 4.94 µM | GI50 (K-562 leukemia): 15.1 µM and 12 µM | TGI (K-562 leukemia): 20 µM and > 100 µM

COc1cc([C@@H]2c3cc4c(cc3[C@H](O)[C@H]3COC(=O)[C@H]23)OCO4)cc(OC)c1OC
GI50 (NCI-H226 lung): < 0.01 µM | GI50 (NCI-H522 lung): < 0.01 µM | TGI (NCI-H522 lung): < 0.01 µM | GI50 (M14 melanoma): < 0.005 µM | GI50 (OVCAR-4 ovarian): < 0.005 µM | GI50 (TK-10 renal): < 0.005 µM | TGI (TK-10 renal): > 100 µM and 50 µM | GI50 (SK-OV-3 ovarian): < 0.01 µM | GI50 (U251 CNS): < 0.005 µM | TGI (U251 CNS): > 100 µM and 50 µM and > 7.6 µM | GI50 (CCRF-CEM leukemia): < 0.01 µM | GI50 (HCC-2998 colon): < 0.005 µM | GI50 (K-562 leukemia): < 0.01 µM | TGI (K-562 leukemia): > 100 µM and 50 µM

Clc1ccc(-c2nn3ncccc3c2-c2ccnc(Nc3ccccc3)n2)cc1
GI50 (NCI-H226 lung): > 13.1 µM | TGI (NCI-H226 lung): > 25 µM | GI50 (NCI-H522 lung): 5.99 µM | TGI (NCI-H522 lung): > 25 µM | GI50 (M14 melanoma): > 14.8 µM | TGI (M14 melanoma): > 25 µM | GI50 (OVCAR-4 ovarian): 9.6 µM | TGI (OVCAR-4 ovarian): > 25 µM | GI50 (TK-10 renal): 7.43 µM | TGI (TK-10 renal): > 20.4 µM | GI50 (SK-OV-3 ovarian): 6.55 µM | TGI (SK-OV-3 ovarian): > 25 µM | GI50 (U251 CNS): 14.9 µM | TGI (U251 CNS): > 25 µM | GI50 (CCRF-CEM leukemia): 10.6 µM | TGI (CCRF-CEM leukemia): > 25 µM | GI50 (HCC-2998 colon): 10.9 µM | TGI (HCC-2998 colon): > 25 µM | GI50 (K-562 leukemia): 2.89 µM | TGI (K-562 leukemia): > 25 µM

CC1=C(/C=C/C(C)=C/C=C/C(C)=C/C(=O)Nc2ccc(O)cc2)C(C)(C)CCC1
GI50 (NCI-H226 lung): 10.3 µM | TGI (NCI-H226 lung): 23.9 µM and 16.7 µM | GI50 (NCI-H522 lung): 0.262 µM | TGI (NCI-H522 lung): 0.787 µM and 2.82 µM | GI50 (M14 melanoma): 4.05 µM | TGI (M14 melanoma): 12.7 µM and 18.7 µM | GI50 (OVCAR-4 ovarian): 2.6 µM | TGI (OVCAR-4 ovarian): 9.53 µM and 14.8 µM | GI50 (TK-10 renal): 5.07 µM | TGI (TK-10 renal): 15.5 µM and 35.4 µM | GI50 (SK-OV-3 ovarian): 2.82 µM | TGI (SK-OV-3 ovarian): 9.71 µM and 17.2 µM | GI50 (U251 CNS): 1.94 µM | TGI (U251 CNS): 7.79 µM and 33.3 µM | GI50 (CCRF-CEM leukemia): 0.238 µM | TGI (CCRF-CEM leukemia): 13.5 µM and 3.59 µM | GI50 (HCC-2998 colon): 2.12 µM | TGI (HCC-2998 colon): 5.97 µM and 18 µM | GI50 (K-562 leukemia): 1.38 µM | TGI (K-562 leukemia): 4.28 µM and > 40.4 µM

CN1c2ccccc2S(=O)(=O)n2c(COc3ccc(Cl)cc3)nnc21
TGI (NCI-H226 lung): > 100 µM | TGI (NCI-H522 lung): > 100 µM | TGI (M14 melanoma): > 100 µM | TGI (OVCAR-4 ovarian): > 100 µM | TGI (TK-10 renal): > 100 µM | TGI (SK-OV-3 ovarian): > 100 µM | TGI (U251 CNS): > 100 µM | TGI (CCRF-CEM leukemia): > 100 µM | TGI (HCC-2998 colon): > 100 µM | TGI (K-562 leukemia): > 100 µM

C=C1C(=O)O[C@@H]2C[C@@H]1CC[C@@]1(C)O[C@@H]1CC[C@@]1(C)O[C@@H]1CC[C@@]2(C)O
GI50 (NCI-H226 lung): 16.9 µM | TGI (NCI-H226 lung): 35.9 µM | GI50 (NCI-H522 lung): 17.5 µM | TGI (NCI-H522 lung): 45.4 µM | GI50 (M14 melanoma): 21.4 µM | TGI (M14 melanoma): 42.4 µM | GI50 (OVCAR-4 ovarian): 12.3 µM | TGI (OVCAR-4 ovarian): 34.3 µM | GI50 (TK-10 renal): 23.4 µM | TGI (TK-10 renal): 67.6 µM | GI50 (SK-OV-3 ovarian): 30.6 µM | TGI (SK-OV-3 ovarian): > 100 µM | GI50 (U251 CNS): 16.1 µM | TGI (U251 CNS): 36.1 µM | GI50 (CCRF-CEM leukemia): 28.1 µM | TGI (CCRF-CEM leukemia): > 100 µM | GI50 (HCC-2998 colon): 4.21 µM | TGI (HCC-2998 colon): 21.1 µM | GI50 (K-562 leukemia): > 100 µM | TGI (K-562 leukemia): > 100 µM

C/C(=N/NC(=O)C(N)=O)C(CC(C(=O)Nc1ccccc1C)/C(C)=N\NC(=O)C(N)=O)C(=O)Nc1ccccc1C (configuration not stated)
TGI (NCI-H226 lung): > 100 µM | TGI (NCI-H522 lung): > 100 µM | TGI (M14 melanoma): > 100 µM | TGI (OVCAR-4 ovarian): > 100 µM | TGI (TK-10 renal): > 100 µM | TGI (SK-OV-3 ovarian): > 100 µM | TGI (U251 CNS): > 100 µM | TGI (CCRF-CEM leukemia): > 100 µM | TGI (HCC-2998 colon): > 100 µM | TGI (K-562 leukemia): > 100 µM
